The record followed here is patent US20260070945A1, “MACROCYCLIC IMMUNOMODULATORS” (Bristol-Myers Squibb Company, priority 2022, published 2026).

*1 amine or outer side, *2 acyl side, *3 side chain or, on linkers, in order; H or OH if unused. Where a SMILES comes first, the peptide text is derived from it. Bridges are numbered along the chain shown (N, C = ends). [ ]: non-standard residue; d: D form. The star is where a group is joined. Phe(4-COOH) = N[C@@H](Cc1ccc(C(=O)O)cc1)C(=O)O; Bip = N[C@@H](Cc1ccc(-c2ccccc2)cc1)C(=O)O; γGlu = O=C(O)[C@H](CCC(=O)[*:2])N[*:1]; βAsp = O=C(O)[C@H](CC(=O)[*:2])N[*:1]; aIle = CC[C@@H](C)[C@H](N)C(=O)O; 4Pal = N[C@@H](Cc1ccncc1)C(=O)O; Cha = N[C@@H](CC1CCCCC1)C(=O)O; Cit = NC(=O)NCCC[C@H](N)C(=O)O; Carboxymethyl = O=C(O)C*; NMeA = CN[C@@H](C)C(=O)O; Orn = NCCC[C@H](N)C(=O)O; dDap = NC[C@@H](N)C(=O)O; Aun = NCCCCCCCCCCC(=O)O; Dab = NCC[C@H](N)C(=O)O; AEEA = NCCOCCOCC(=O)O

In the assay the target is T1, PD-1/PD-L1 interaction (PE-labeled human PD-L1-Ig binding to Jurkat cell line over-expressing human PD-1) (Homo sapiens, UniProt Q15116).
T1 construct: expressed in transfected cells; host or cells: Jurkat
T1 sequence (Q15116 25-288): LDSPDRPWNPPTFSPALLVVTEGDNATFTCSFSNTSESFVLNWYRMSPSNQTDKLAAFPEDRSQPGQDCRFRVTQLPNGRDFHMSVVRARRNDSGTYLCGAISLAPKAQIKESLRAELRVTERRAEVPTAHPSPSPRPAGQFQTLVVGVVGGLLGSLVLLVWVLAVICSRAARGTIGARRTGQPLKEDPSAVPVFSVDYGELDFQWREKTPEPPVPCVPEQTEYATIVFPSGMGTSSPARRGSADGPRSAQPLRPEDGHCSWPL
The assay is described as follows: Jurkat-PD-1 Cell Binding High-Content Screening Assay (CBA). The conditions noted are these: Jurkat-hPD-1 cells, PE-labeled PD-L1-Ig 20 nM final; read-out: Jurkat HPD1 PDL1 IC50. An outline of the steps:
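Jurkat cells overexpressing human PD-1 (8×10^3/well, DMEM + 10% FCS) preincubated with compound 2 h at 37 °C, then PE-labelled human PD-L1-Ig (20 nM final) for 1 h. Cells fixed in paraformaldehyde with Hoechst 33342; bound PD-L1 quantified by high-content imaging.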
On to `CC[C@@H](C)[C@@H]1NC(=O)[C@H](Cc2ccc(-c3ccccc3)cc2)NC(=O)[C@H](C(C)C)NC(=O)[C@H](Cc2c[nH]c3ccccc23)NC(=O)[C@H](CC(=O)O)NC(=O)[C@H](Cc2ccc(C(=O)O)cc2)NC(=O)[C@H](Cc2ccc(OCC(=O)O)cc2)NC(=O)CSC[C@@H](C(=O)N[C@H](CN)C(=O)NCCOCCOCC(=O)N[C@@H](CCC(=O)NCCOCCOCC(=O)N[C@@H](CCC(=O)NCCOCCOCC(=O)N[C@@H](CCCN)C(=O)NCCCCCCCCCCC(=O)O)C(=O)O)C(=O)O)NC(=O)[C@H](CO)NC(=O)[C@H](C(C)C)NC(=O)[C@H](CC2CCCCC2)NC(=O)[C@H](CC(N)=O)NC(=O)[C@@H](CC(C)C)NC(=O)[C@H](C)N(C)C1=O` [Example 2018] ({CH2CO}-Y(Carboxymethyl)[Phe(4-COOH)]DWV[Bip][aIle][NMeA][dL]N[Cha]VSC[dDap][AEEA][γGlu][AEEA][γGlu][AEEA][Orn][Aun]-OH; thioether N-14), for which the IC50 is 0.0737 µM.

For `CC[C@@H](C)[C@@H]1NC(=O)[C@H](Cc2ccc(-c3ccccc3)cc2)NC(=O)[C@H](C(C)C)NC(=O)[C@H](Cc2c[nH]c3ccccc23)NC(=O)[C@H](CC(=O)O)NC(=O)[C@H](Cc2ccc(OCC(=O)O)cc2)NC(=O)[C@H](Cc2ccncc2)NC(=O)CSC[C@@H](C(=O)NCCOCCOCC(=O)N[C@@H](CCC(=O)NCCOCCOCC(=O)N[C@@H](CCC(=O)NCCOCCOCC(=O)N[C@@H](CCCN)C(=O)NCCCCCCCCCCC(=O)O)C(=O)O)C(=O)O)NC(=O)[C@H](CO)NC(=O)[C@H](C(C)C)NC(=O)[C@H](CC2CCCCC2)NC(=O)[C@H](CC(N)=O)NC(=O)[C@@H](CC(C)C)NC(=O)[C@H](C)N(C)C1=O` [Example 2019] ({CH2CO}-[4Pal]Y(Carboxymethyl)DWV[Bip][aIle][NMeA][dL]N[Cha]VSC[AEEA][γGlu][AEEA][γGlu][AEEA][Orn][Aun]-OH; thioether N-14), the 50% inhibitory concentration (IC50) was found to be 0.0249 µM.

For `CC[C@@H](C)[C@@H]1NC(=O)[C@H](Cc2ccc(-c3ccccc3)cc2)NC(=O)[C@H](C(C)C)NC(=O)[C@H](Cc2c[nH]c3ccccc23)NC(=O)[C@H](CC(=O)O)NC(=O)[C@H](Cc2ccc(O)cc2)NC(=O)[C@H](Cc2ccncc2)NC(=O)CSC[C@@H](C(=O)N[C@H](CC(N)=O)C(=O)NCCOCCOCC(=O)N[C@@H](CCC(=O)NCCOCCOCC(=O)N[C@@H](CCC(=O)NCCOCCOCC(=O)N[C@@H](CCCN)C(=O)NCCCCCCCCCCC(=O)O)C(=O)O)C(=O)O)NC(=O)[C@H](CO)NC(=O)[C@H](C(C)C)NC(=O)[C@H](CC2CCCCC2)NC(=O)[C@H](CC(N)=O)NC(=O)[C@@H](CC(C)C)NC(=O)[C@H](C)N(C)C1=O` [Example 2020] ({CH2CO}-[4Pal]YDWV[Bip][aIle][NMeA][dL]N[Cha]VSC[dN][AEEA][γGlu][AEEA][γGlu][AEEA][Orn][Aun]-OH; thioether N-14), the IC50 was determined as 0.0305 µM.

Consider `CC[C@@H](C)[C@@H]1NC(=O)[C@H](Cc2ccc(-c3ccccc3)cc2)NC(=O)[C@H](C(C)C)NC(=O)[C@H](Cc2c[nH]c3ccccc23)NC(=O)[C@H](CC(=O)O)NC(=O)[C@H](Cc2ccc(C(=O)O)cc2)NC(=O)[C@H](Cc2ccc(OCC(=O)O)cc2)NC(=O)CSC[C@@H](C(=O)N[C@@H](CC(N)=O)C(=O)NCCOCCOCC(=O)N[C@@H](CCC(=O)NCCOCCOCC(=O)N[C@@H](CCC(=O)NCCOCCOCC(=O)N[C@@H](CCCN)C(=O)NCCCCCCCCCCC(=O)O)C(=O)O)C(=O)O)NC(=O)[C@H](CO)NC(=O)[C@H](C(C)C)NC(=O)[C@H](CC2CCCCC2)NC(=O)[C@H](CC(N)=O)NC(=O)[C@@H](CC(C)C)NC(=O)[C@H](C)N(C)C1=O` [Example 2021] ({CH2CO}-Y(Carboxymethyl)[Phe(4-COOH)]DWV[Bip][aIle][NMeA][dL]N[Cha]VSCN[AEEA][γGlu][AEEA][γGlu][AEEA][Orn][Aun]-OH; thioether N-14), for which the IC50 turned out to be 0.0489 µM.

Turning to `CC(C)C[C@@H]1NC(=O)[C@H](Cc2c[nH]c3ccccc23)NC(=O)[C@H](CC(=O)O)NC(=O)[C@H](Cc2ccc(OCC(=O)O)cc2)NC(=O)[C@H](Cc2ccncc2)NC(=O)CSC[C@@H](C(=O)N[C@@H](CC(N)=O)C(=O)N[C@@H](CC(=O)NCCOCCOCC(=O)NCCCCCCCCCCC(=O)O)C(=O)O)NC(=O)[C@H](CO)NC(=O)[C@H](C(C)C)NC(=O)[C@H](CC2CCCCC2)NC(=O)[C@H](CC(N)=O)NC(=O)[C@@H](CC(C)C)NC(=O)[C@H](C)N(C)C(=O)[C@H](C(C)C)NC(=O)[C@H](Cc2ccc(-c3ccccc3)cc2)NC1=O` [Example 2022] ({CH2CO}-[4Pal]Y(Carboxymethyl)DWL[Bip]V[NMeA][dL]N[Cha]VSCN[βAsp][AEEA][Aun]-OH; thioether N-14), the IC50 worked out at 0.129 µM.

In the case of `CC[C@@H](C)[C@@H]1NC(=O)[C@H](Cc2ccc(-c3ccccc3)cc2)NC(=O)[C@H](C(C)C)NC(=O)[C@H](Cc2c[nH]c3ccccc23)NC(=O)[C@H](CC(=O)O)NC(=O)[C@H](Cc2ccc(O)cc2)NC(=O)[C@H](Cc2ccncc2)NC(=O)CSC[C@@H](C(=O)N[C@H](CCCCN)C(=O)NCCOCCOCC(=O)NCCCCCCCCCCC(=O)O)NC(=O)[C@H](CO)NC(=O)[C@H](C(C)C)NC(=O)[C@H](CC2CCCCC2)NC(=O)[C@H](CCN)NC(=O)[C@@H](CC(C)C)NC(=O)[C@H](C)N(C)C1=O` [Example 2023] ({CH2CO}-[4Pal]YDWV[Bip][aIle][NMeA][dL][Dab][Cha]VSC[dK][AEEA][Aun]-OH; thioether N-14), the IC50 was determined as 0.0474 µM.

As for `CC[C@@H](C)[C@@H]1NC(=O)[C@H](Cc2ccc(-c3ccccc3)cc2)NC(=O)[C@H](C(C)C)NC(=O)[C@H](Cc2c[nH]c3ccccc23)NC(=O)[C@H](CC(=O)O)NC(=O)[C@H](Cc2ccc(OCC(=O)O)cc2)NC(=O)[C@H](CCCNC(N)=O)NC(=O)CSC[C@@H](C(=O)N[C@H](CC(N)=O)C(=O)NCCOCCOCC(=O)N[C@@H](CCC(=O)NCCOCCOCC(=O)N[C@@H](CCC(=O)NCCOCCOCC(=O)N[C@@H](CCCN)C(=O)NCCCCCCCCCCC(=O)O)C(=O)O)C(=O)O)NC(=O)[C@H](CO)NC(=O)[C@H](C(C)C)NC(=O)[C@H](CC2CCCCC2)NC(=O)[C@H](CC(N)=O)NC(=O)[C@@H](CC(C)C)NC(=O)[C@H](C)N(C)C1=O` [Example 2024] ({CH2CO}-[Cit]Y(Carboxymethyl)DWV[Bip][aIle][NMeA][dL]N[Cha]VSC[dN][AEEA][γGlu][AEEA][γGlu][AEEA][Orn][Aun]-OH; thioether N-14), the IC50 amounted to 0.0383 µM.

Consider `CC[C@@H](C)[C@@H]1NC(=O)[C@H](Cc2ccc(-c3ccccc3)cc2)NC(=O)[C@H](C(C)C)NC(=O)[C@H](Cc2c[nH]c3ccccc23)NC(=O)[C@H](CC(=O)O)NC(=O)[C@H](Cc2ccc(O)cc2)NC(=O)[C@H](CCCNC(N)=O)NC(=O)CSC[C@@H](C(=O)N[C@H](CC(N)=O)C(=O)NCCOCCOCC(=O)N[C@@H](CCC(=O)NCCOCCOCC(=O)N[C@@H](CCC(=O)NCCOCCOCC(=O)N[C@@H](CCCN)C(=O)NCCCCCCCCCCC(=O)O)C(=O)O)C(=O)O)NC(=O)[C@H](CO)NC(=O)[C@H](C(C)C)NC(=O)[C@H](CC2CCCCC2)NC(=O)[C@H](CC(N)=O)NC(=O)[C@@H](CC(C)C)NC(=O)[C@H](C)N(C)C1=O` [Example 2025] ({CH2CO}-[Cit]YDWV[Bip][aIle][NMeA][dL]N[Cha]VSC[dN][AEEA][γGlu][AEEA][γGlu][AEEA][Orn][Aun]-OH; thioether N-14), for which the IC50 was found to be 0.0498 µM.
